From patent US20230219949A1, “INHIBITORS OF (ALPHA-V)(BETA-6) INTEGRIN” (priority 2018, published 2023)
Values joined by “and” are separate entries in the source; they are usually repeats but may differ in a detail not shown here. Equal entries are not always repeated.

Experiments:
integrin αvβ6 = integrin αvβ6 (Homo sapiens, UniProt P06756+P18564); assay: Fluorescence polarization assay for αvβ6 binding (competition with fluorescein-labeled peptide GRGDLGRL); conditions: fluorescence polarization assay of Example 12; 10 nM integrin αvβ6, 3 nM labeled peptide; read-out: avb6. (IC50)
Chain of integrin αvβ6 (P06756 31-992 limits assumed): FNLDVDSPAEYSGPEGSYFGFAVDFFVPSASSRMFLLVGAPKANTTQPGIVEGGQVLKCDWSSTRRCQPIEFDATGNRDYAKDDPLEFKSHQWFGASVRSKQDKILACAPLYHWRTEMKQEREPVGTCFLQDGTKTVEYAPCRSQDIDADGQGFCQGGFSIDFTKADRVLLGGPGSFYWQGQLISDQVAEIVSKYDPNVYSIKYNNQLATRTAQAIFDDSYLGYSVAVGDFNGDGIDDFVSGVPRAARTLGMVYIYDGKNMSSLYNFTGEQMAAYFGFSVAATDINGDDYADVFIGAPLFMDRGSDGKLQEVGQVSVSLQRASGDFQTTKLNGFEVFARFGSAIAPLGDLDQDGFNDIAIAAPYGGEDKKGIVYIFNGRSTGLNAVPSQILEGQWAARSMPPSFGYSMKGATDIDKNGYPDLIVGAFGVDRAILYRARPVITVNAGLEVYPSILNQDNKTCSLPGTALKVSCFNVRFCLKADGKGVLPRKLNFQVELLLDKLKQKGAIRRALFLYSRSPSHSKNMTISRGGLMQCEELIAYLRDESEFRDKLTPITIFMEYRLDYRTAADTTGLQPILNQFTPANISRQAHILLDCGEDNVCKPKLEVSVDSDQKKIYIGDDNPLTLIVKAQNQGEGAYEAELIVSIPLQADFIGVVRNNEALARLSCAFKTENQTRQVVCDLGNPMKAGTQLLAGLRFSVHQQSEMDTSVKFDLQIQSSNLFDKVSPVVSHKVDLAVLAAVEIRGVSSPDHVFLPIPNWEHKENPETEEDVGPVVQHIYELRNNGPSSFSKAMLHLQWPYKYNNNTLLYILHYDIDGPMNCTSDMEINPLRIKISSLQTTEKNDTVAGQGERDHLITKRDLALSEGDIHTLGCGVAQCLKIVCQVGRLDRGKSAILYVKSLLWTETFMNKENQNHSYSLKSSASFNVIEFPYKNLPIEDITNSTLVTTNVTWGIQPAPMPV
Chain of integrin αvβ6 (P18564 22-709 limits assumed): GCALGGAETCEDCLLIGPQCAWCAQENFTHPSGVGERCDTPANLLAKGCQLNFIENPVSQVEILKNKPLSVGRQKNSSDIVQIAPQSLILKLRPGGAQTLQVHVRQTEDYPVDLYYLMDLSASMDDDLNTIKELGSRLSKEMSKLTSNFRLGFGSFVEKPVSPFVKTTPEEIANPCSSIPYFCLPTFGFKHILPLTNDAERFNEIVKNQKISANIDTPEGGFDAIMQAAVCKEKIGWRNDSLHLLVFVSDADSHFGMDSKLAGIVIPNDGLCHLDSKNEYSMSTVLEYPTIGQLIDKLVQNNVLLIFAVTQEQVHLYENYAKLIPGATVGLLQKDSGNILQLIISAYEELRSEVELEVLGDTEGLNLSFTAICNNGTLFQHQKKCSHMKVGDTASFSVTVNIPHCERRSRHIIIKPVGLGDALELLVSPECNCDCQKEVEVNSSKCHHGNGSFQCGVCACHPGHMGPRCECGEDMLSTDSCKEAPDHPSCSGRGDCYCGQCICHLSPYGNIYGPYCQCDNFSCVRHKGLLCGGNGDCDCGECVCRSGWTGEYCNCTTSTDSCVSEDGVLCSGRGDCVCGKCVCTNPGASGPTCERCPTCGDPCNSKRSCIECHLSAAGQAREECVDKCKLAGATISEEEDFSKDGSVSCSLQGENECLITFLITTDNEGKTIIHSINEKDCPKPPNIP
Protocol: Fluorescence Polarization (FP) assays were used to measure compound activity through binding competition with the fluorescein-labeled peptide GRGDLGRL. In the assay, 10 nM of integrin αvβ6 was incubated with the test compound in 2 mM manganese chloride, 0.1 mM calcium chloride, 20 mM HEPES buffer at pH 7.3, 150 mM sodium chloride, 0.01% Triton X-100, 2% DMSO, and 3 nM of the fluorescein-labeled peptide. The assays were run in 384-well plates. For both assay versions, the integrin protein was pre-incubated with the test compounds for 15 minutes at 22° C. before the fluorescein-labeled peptide was added. After the fluorescein-labeled peptide was added, the assay was incubated at 22° C. for 1 hour and fluorescence polarization was measured. IC50 values were determined by nonlinear regression, 4-parameter curve fitting (FIG. 1).

[1] = MDCK in vitro permeability assay, wild type MDCK cells with no inhibitor (A→B); format: in vitro ADME, Canine; conditions: dog, no Pgp inhibitor, apical to basolateral
Protocol: (§1) Compounds were tested for permeability in an MDCK permeability assay. This assay measures the ability of compounds to cross a layer of Madin-Darby Canine Kidney (MDCK) cells from the apical to basolateral side (A→B). This measurement is predictive of the ability of compounds to be absorbed in the gut following oral dosing, an essential characteristic of an orally administered small molecule integrin inhibitor drug.
(§2) The assay is run in two formats. One uses wild type MDCK cells with no inhibitor. This method works well in determining the passive permeability of compounds with low efflux by P-glyocprotein (Pgp), and was used to assess permeability of a Reference Compound having the chemical formula shown below.
(§3) Cell Culture and Maintenance: • Cell stock cultures (MDCK or MDCK MDR1) are maintained in MEM+10% FBS+1% NEAA, grown in 75 cm^2 tissue culture treated flasks and split (passed) 2 times weekly to maintain desired confluence. • For maintenance passage: trypsinized cells are routinely distributed into new flasks at a standard passage ratio of 1:20.
(§4) Seeding assay plates: MDCK assay plates are seeded with MDCK or MDCK MCR1 cells 3-4 days prior to running the assay. 24-well plates are seeded at a cell density of 0.88×10^5/well in a 400 μL apical chamber volume (2.2×10^5/mL) with a […] volume of growth medium to the 24-well basal chamber. […]

[2] = test system: Madin-Darby Canine Kidney (MDCK) cells; assay: as above; format: in vitro ADME; conditions: no Pgp inhibitor, apical to basolateral
Protocol: as §1, §2, §3, §4

What does the source list for O=C(O)CN1CCC(C(=O)N2CCC(c3ccc4c(n3)NCCC4)CC2)CC1 [Reference Compound]?
IC50 (integrin αvβ6): ~96.5 nM and 96.5 nM; Papp A→B at 90 min, 5 μM [1]: < 0.23 ×10⁻⁶ cm/s; MDCK (A−>B) [2]: less than 0.23
